Legend:
PSMA = molecular target: T1, PSMA (Homo sapiens, UniProt Q04609); experiment: Competitive cell binding against 68Ga-labeled PSMA-10 radioligand; settings: non-labeled compound vs 0.8 nM 68Ga-PSMA-10; first preliminary experiments; read-out: IC50 (50% inhibitory concentration), competitive cell binding
T1 construct: endogenous in cells
Procedure: For the determination of competitive cell binding the cells (10^5 per well) were incubated with a 0.8 nM solution of ^68Ga-labeled radioligand [Glu-urea-Lys(Ahx)]2-HBED-CC (PSMA-10, precursor ordered from ABX, Radeberg, Germany) in the presence of 12 different concentrations of analyte (non-labeled compounds, 0-5000 nM, 100 μL/well). After incubation, the mixture was removed and the wells were washed 3 times with PBS using a multiscreen vacuum manifold (Millipore, Billerica, Mass.). Cell-bound radioactivity was measured using a gamma counter (Packard Cobra II, GMI, Minn., USA). The 50% inhibitory concentration (IC50) values were calculated by fitting the data using a nonlinear regression algorithm (GraphPad Software).

LNCaP cells = experiment: Internalization and cell surface binding of 177Lu-labeled PSMA ligands; assay type: cell-based; settings: 30 nM 177Lu-labeled ligand, 45 min, 37° C., blocking with 2-PMPA
Procedure: 10^5 LNCaP cells were seeded in poly-L-lysine coated 24-well cell culture plates. 24 h later, wells were washed and the cells incubated with a 30 nM solution of ^177Lu radiolabeled PSMA-ligand (PSMA-617 or PSMA-MT) in 250 μL medium, for 45 min at 37° C. In the blocking experiments, incubation was performed in the presence of excess of 2-PMPA to assess competition for PSMA. Following incubation, PSMA-ligand containing medium was removed by washing 3 times with 1 mL of ice-cold PBS. Cells were subsequently incubated twice with 0.5 mL glycine-HCl in PBS (50 mM, pH=2.8) for 5 min to extract the cell membrane associated fraction. The cells were then washed with 1 mL of ice-cold PBS, and lysed with 0.5 mL 0.3 M NaOH. The membrane bound and lysed (internalized) fractions were assessed for radioactivity levels using a gamma counter (Packard Cobra II, GMI, Minn., USA). Cell uptake was calculated as percent of the initially added radioactivity detected in 10^5 cells [% IA/10^5 cells].

[1] = Organ distribution of 177Lu-labeled PSMA ligands in LNCaP tumor-bearing mice; assay type: in vivo, BALB/c nu/nu mice; settings: 60 pmol via tail vein, mean, n=3; for Organ distribution: Tumor: LNCaP tumor
Procedure: 5×10^6 LNCaP cells were subcutaneously inoculated into the right flank of male 6-week-old BALB/c nu/nu mice (Charles River Laboratories). Tumors were grown for ˜3 weeks, to ˜200 mm^3. 60 pmoles of ^177Lu labelled PSMA-ligands were dissolved in 100 μL 0.9% NaCl and injected per mouse. The solution was injected via the tail vein, followed by sacrifice at various time points. Organs of interest (blood, heart, lung, spleen, liver, kidney, muscle, small intestine, brain, tumor, and femur) were dissected, blotted dry, and weighed. The radioactivity was measured using a gamma counter and calculated as % ID/g, and corrected for ^177Lu decay.
The results are given in the following tables (mean+standard deviation; per time point n=3 animals) (see also FIG. 4): […]

prostate cancer = settings: cited from earlier work
α-Amylase = molecular target: T2, α-Amylase (Homo sapiens, UniProt P0DUB6); experiment: α-Amylase digestion of PSMA-MT, analysed by RP-HPLC and MALDI-TOF; assay type: in vitro ADME
T2 sequence (P0DUB6 16-511): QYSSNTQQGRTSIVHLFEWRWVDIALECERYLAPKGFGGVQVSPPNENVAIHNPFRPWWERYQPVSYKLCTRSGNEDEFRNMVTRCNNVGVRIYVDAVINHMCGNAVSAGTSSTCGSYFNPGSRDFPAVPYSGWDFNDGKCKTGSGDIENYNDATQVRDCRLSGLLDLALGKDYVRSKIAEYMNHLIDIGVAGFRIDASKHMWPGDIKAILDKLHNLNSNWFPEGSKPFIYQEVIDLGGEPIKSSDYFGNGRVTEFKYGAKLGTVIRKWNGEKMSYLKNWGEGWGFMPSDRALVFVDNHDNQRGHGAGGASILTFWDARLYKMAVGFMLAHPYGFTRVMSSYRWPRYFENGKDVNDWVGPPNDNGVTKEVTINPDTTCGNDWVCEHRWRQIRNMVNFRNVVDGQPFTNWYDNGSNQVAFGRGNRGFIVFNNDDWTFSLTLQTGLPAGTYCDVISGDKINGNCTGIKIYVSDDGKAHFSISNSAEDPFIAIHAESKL
Procedure: 10 μl of a solution of PSMA-MT in ultrapure water with a concentration of 1 mM were analyzed by analytic RP-HPLC and MALDI-TOF before the digestion. For digestion 10 μl of α-Amylase (1 U/μl in H2O ) were added to 10 μl of a solution of PSMA-MT in ultrapure water with a concentration of 1 mM and incubated at RT for 1 h. The solution was afterwards analyzed with analytic RP-HPLC and MALDI-TOF to evaluate the reaction.
To investigate the exact digest position of PSMA-MT the different fragments found in the MALDI-TOF after the digest were compared. Two main peaks occurred at 902 g/mol and at 989 g/mol. […] Fragments corresponding to cleavage at cleavage site B could not be detected in the MALDI-TOF.

[2] = molecular target: T3, α-amylase (isolated from the human salivary gland) (Homo sapiens, UniProt P0DUB6); experiment: Cleavability of the linker by α-amylase, monitored by analytical HPLC; assay type: in vitro ADME; settings: in vitro, after 177Lu labeling according to example 1A, analytical HPLC at different times
T3 construct: incubated with α-amylase (isolated from the human salivary gland, Sigma-Aldrich); purchased Sigma-Aldrich; host or cells: human salivary gland (natural source)
T3 sequence (P0DUB6 16-511): T2 sequence (P0DUB6 16-511)
Procedure: FIG. 1. The time-dependent cleavability of the compound PSMA-MT by α-amylase is shown. ^177Lu-PSMA-MT was incubated with an α-amylase (isolated from the human salivary gland) and enzymatic cleavage was monitored at different times by analytical HPLC.
The radiolabelled compound was incubated with α-amylase (isolated from the human salivary gland, Sigma-Aldrich) according to instructions of the manufacturer and enzymatic cleavage was monitored at different times by analytical HPLC (see FIG. 1).

T1 sequence (Q04609 whole entry): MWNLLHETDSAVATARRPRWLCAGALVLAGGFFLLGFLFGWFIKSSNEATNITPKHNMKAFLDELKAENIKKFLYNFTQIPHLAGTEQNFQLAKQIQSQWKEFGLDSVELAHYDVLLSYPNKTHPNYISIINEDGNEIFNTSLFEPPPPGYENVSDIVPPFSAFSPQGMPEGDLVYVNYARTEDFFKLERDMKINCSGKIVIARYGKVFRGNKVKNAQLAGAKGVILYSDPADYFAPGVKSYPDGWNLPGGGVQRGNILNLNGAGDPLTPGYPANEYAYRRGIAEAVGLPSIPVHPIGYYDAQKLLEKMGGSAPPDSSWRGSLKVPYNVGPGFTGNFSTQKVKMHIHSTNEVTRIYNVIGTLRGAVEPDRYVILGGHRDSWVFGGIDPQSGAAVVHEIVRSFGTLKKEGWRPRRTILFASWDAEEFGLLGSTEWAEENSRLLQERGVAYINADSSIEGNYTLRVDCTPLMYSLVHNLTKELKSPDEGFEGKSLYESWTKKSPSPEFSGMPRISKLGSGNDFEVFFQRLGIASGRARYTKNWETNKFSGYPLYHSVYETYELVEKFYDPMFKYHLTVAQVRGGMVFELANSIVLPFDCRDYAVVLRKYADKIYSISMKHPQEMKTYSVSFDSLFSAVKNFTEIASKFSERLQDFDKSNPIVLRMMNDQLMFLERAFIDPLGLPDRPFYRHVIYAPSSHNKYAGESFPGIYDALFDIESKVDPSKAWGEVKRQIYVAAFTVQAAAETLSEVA

Structure (SMILES) | IC50 (PSMA) | Specifically cell surface bound (cell uptake), mean (LNCaP cells) | Specifically internalized (cell uptake), mean (LNCaP cells) | Organ distribution: Blood ([1]; 1 h) | Organ distribution: Brain ([1]; 1 h) | Organ distribution: Heart ([1]; 1 h) | Organ distribution: Kidney (first Kidney column) ([1]; 1 h) | Organ distribution: Kidney (second Kidney column) ([1]; 1 h) | Organ distribution: Liver ([1]; 1 h) | Organ distribution: Lung ([1]; 1 h) | Organ distribution: Muscle ([1]; 1 h) | Organ distribution: Small Intestine ([1]; 1 h) | Organ distribution: Spleen ([1]; 1 h) | Organ distribution: Tail ([1]; 1 h) | Organ distribution: Tumor ([1]; 1 h) | Organ distribution: Blood ([1]; 4 h) | Organ distribution: Brain ([1]; 4 h) | Organ distribution: Heart ([1]; 4 h) | Organ distribution: Kidney (first Kidney column) ([1]; 4 h) | Organ distribution: Kidney (second Kidney column) ([1]; 4 h) | also measured
O=C(O)CCC(NC(=O)NC(CCCCNC(=O)C(Cc1ccc2ccccc2c1)NC(=O)C1CCC(CNC(=O)CN2CCN(CC(=O)O)CCN(CC(=O)O)CCN(CC(=O)O)CC2)CC1)C(=O)O)C(=O)O (centres unmarked) [PSMA-617, 2-[3-(1-Carboxy-5-{3-naphthalen-2-yl-2-[(4-{[2-(4,7,10-tris-carboxymethyl-1,4,7,10-tetraaza-cyclododec-1-yl)-acetylamino]-methyl}-cyclohexanecarbonyl) -amino]-propionylamino}-pentyl)-ureido]-pentanedioic acid, reference compound] | ~20 nM |  |  |  |  |  |  |  |  |  |  |  |  |  |  |  |  |  |  |  | 
O=C([O-])CN1CCN(CC(=O)[O-])CCN(CC(=O)NCC2CCC(C(=O)N[C@@H](Cc3ccc4ccccc4c3)C(=O)NCCCC[C@H](NC(=O)N[C@@H](CCC(=O)O)C(=O)O)C(=O)O)CC2)CCN(CC(=O)[O-])CC1.[177Lu+3] (some centres unmarked) [177Lu-PSMA-617, reference compound] |  | 4,09228993 % IA/10^5 cells | 2,63598315 % IA/10^5 cells | 0.31 % ID/g | 0.02 % ID/g | 0.17 % ID/g | 143.55 % ID/g | 146.77 % ID/g | 4.73 % ID/g | 0.61 % ID/g | 0.07 % ID/g | 0.18 % ID/g | 5.86 % ID/g | 3.46 % ID/g | 19.20 % ID/g | 0.03 % ID/g | 0.01 % ID/g | 0.03 % ID/g | 5.52 % ID/g | 5.50 % ID/g | Organ distribution: Liver ([1]; 4 h): 1.57 % ID/g; Organ distribution: Lung ([1]; 4 h): 0.08 % ID/g; Organ distribution: Muscle ([1]; 4 h): 0.01 % ID/g; Organ distribution: Small Intestine ([1]; 4 h): 0.04 % ID/g; Organ distribution: Spleen ([1]; 4 h): 1.20 % ID/g; Organ distribution: Tail ([1]; 4 h): 0.78 % ID/g; Organ distribution: Tumor ([1]; 4 h): 14.77 % ID/g
O=C([O-])CN1CCN(CC(=O)[O-])CCN(CC(=O)N2CCN(c3cccc(C4OCC5OC(OC6C(CO)OC(OC7C(CO)OC(Oc8ccc(CCC(=O)NCC9CCC(C(=O)NC(Cc%10ccc%11ccccc%11c%10)C(=O)NCCCCC(NC(=O)NC(CCC(=O)O)C(=O)O)C(=O)O)CC9)cc8)C(O)C7O)C(O)C6O)C(O)C(O)C5O4)c3)CC2)CCN(CC(=O)[O-])CC1.[177Lu+3] (centres unmarked) [177Lu-PSMA-MT] |  | 4,86794251 % IA/10^5 cells | 2,14459836 % IA/10^5 cells | 0.35 % ID/g | 0.02 % ID/g | 0.16 % ID/g | 144.27 % ID/g | 142.04 % ID/g | 2.07 % ID/g | 0.56 % ID/g | 0.08 % ID/g | 0.15 % ID/g | 3.83 % ID/g | 4.61 % ID/g | 12.83 % ID/g | 0.04 % ID/g | 0.01 % ID/g | 0.04 % ID/g | 20.59 % ID/g | 19.45 % ID/g | Organ distribution: Liver ([1]; 4 h): 4.58 % ID/g; Organ distribution: Lung ([1]; 4 h): 0.10 % ID/g; Organ distribution: Muscle ([1]; 4 h): 0.02 % ID/g; Organ distribution: Small Intestine ([1]; 4 h): 0.04 % ID/g; Organ distribution: Spleen ([1]; 4 h): 3.94 % ID/g; Organ distribution: Tail ([1]; 4 h): 0.50 % ID/g; Organ distribution: Tumor ([1]; 4 h): 9.18 % ID/g
O=C([O-])CC[C@H](NC(=O)N[C@@H](CCCCNC(=O)[C@H](Cc1ccc2ccccc2c1)NC(=O)C1CCC(CNC(=O)CN2CCN(CC(=O)[O-])CCN(CC(=O)[O-])CCN(CC(=O)[O-])CC2)CC1)C(=O)[O-])C(=O)[O-].[225Ac].[H+].[H+].[H+] (some centres unmarked) [225Ac-PSMA-617] |  |  |  |  |  |  |  |  |  |  |  |  |  |  |  |  |  |  |  |  | PSA value (prostate cancer; both patients): below the detectability limit; Clinical response (prostate cancer; two patients with extremely advanced and end-stage disease): complete remission
O=C(O)CCC(NC(=O)NC(CCCCNC(=O)C(Cc1ccc2ccccc2c1)NC(=O)C1CCC(CNC(=O)CCc2ccc(OC3OC(CO)C(OC4OC(CO)C(OC5OC6COC(c7cccc(N8CCN(C(=O)CN9CCN(CC(=O)O)CCN(CC(=O)O)CCN(CC(=O)O)CC9)CC8)c7)OC6C(O)C5O)C(O)C4O)C(O)C3O)cc2)CC1)C(=O)O)C(=O)O (centres unmarked) [PSMA-MT, 1-(4-(3-oxo-3-PSMA-propyl)phenyl)-4″,6″-(3-(4-DOTA-piperazine)benzylidene)maltotriose] | ~39 nM |  |  |  |  |  |  |  |  |  |  |  |  |  |  |  |  |  |  |  | Turnover of PSMA-MT on digestion with α-Amylase (original mass peak disappeared) (α-Amylase; 1 h at RT, 1 U/μl α-Amylase, 1 mM PSMA-MT, MALDI-TOF): complete turnover; Alpha-amylase cleavage site whose predicted fragments were found (α-Amylase; MALDI-TOF after digest, fragments for cleavage site B could not be detected): cleavage site A; Basic cleavability of the linker by α-amylases [2]: demonstrated

Source: patent US20220324898A1, “PROSTATE SPECIFIC MEMBRANE ANTIGEN (PSMA) LIGANDS COMPRISING AN AMYLASE CLEAVABLE LINKER” (Deutsches Krebsforschungszentrum, priority 2019, published 2022)
